Counter-ions that a name gives are not always drawn.
Legend:
[1] = Description: The rotation number of the stirrer was 120 rpm, and all of the tests were conducted in a thermostat at 37±0.5° C. Two types of test solutions, namely, distilled water and 2nd fluid for disintegration test (pH 6.8) of the Japanese Pharmacopoeia were used. As such 2nd fluid for disintegration test of the Japanese Pharmacopoeia, a solution prepared by diluting the 10-fold concentration solution of Kanto Kagaku Co., Ltd. with distilled water was used.
A comparative test was carried out in the same manner as that described above with the exception that a poorly-soluble substance or the like was used in an amount equal to that of a substance with improved aqueous solubility, instead of the substance with improved aqueous solubility.
1 mL of the solution was sampled in an Eppendorf centrifuge tube, 1, 3, 10, 30, 60, 180 and 360 minutes after initiation of the test. The thus sampled solution was centrifuged at 12,000 rpm for 5 minutes. […] In the case of the comparative test, the poorly-soluble substance or the like, which had not been dissolved in the solution, was removed. An aliquot of this supernatant was immediately frozen. The frozen sample was freeze-dried, and it was then used as a sample in the measurement of the amount of the substance with improved aqueous solubility, which had been dissolved in the test solution. The dissolved poorly-soluble substance was measured mainly using a dual wavelength absorption photometer.
Moreover, a comparative test was carried out using silica fume instead of the calcium compound microparticles. Specifically, a coating treatment was carried out according to the same method as that described in the above section “6-1.

[2] = Dissolution test of poorly-soluble substances using distilled water; format: physicochemical
[3] = Dissolution test of poorly-soluble substances using 2nd fluid for disintegration test (pH 6.8) of the Japanese Pharmacopoeia; format: physicochemical
Description: From initiation of the test, the mixed solution was stirred with a stirrer having a length of 15 mm. The rotation number of the stirrer was 120 rpm, and all of the tests were conducted in a thermostat at 37±0.5° C. Two types of test solutions, namely, distilled water and 2nd fluid for disintegration test (pH 6.8) of the Japanese Pharmacopoeia were used. As such 2nd fluid for disintegration test of the Japanese Pharmacopoeia, a solution prepared by diluting the 10-fold concentration solution of Kanto Kagaku Co., Ltd. with distilled water was used.

[4] = 2nd fluid for disintegration test, elution time 3 min
[5] = 2nd fluid for disintegration test, elution time 120 min
[6] = 2nd fluid for disintegration test, elution time 360 min
[7] = 2nd fluid for disintegration test, elution time 30 min
[8] = 2nd fluid for disintegration test, elution time 10 min

SMILES: CO/N=C(\C(=O)N[C@@H]1C(=O)N2C(C(=O)O)=C(CSc3nnnn3C)CS[C@H]12)c1csc(N)n1 [cefmenoxime hydrochloride]
- solubility-improving effect [1]: a solubility-improving effect was obtained

SMILES: C[C@@H]1[C@H](O)[C@@H](C)/C=C/C=C/CC/C=C/C=C/C=C/C=C/C(O[C@H]2O[C@H](C)[C@@H](O)[C@H](N)[C@@H]2O)CC2O[C@](O)(CC(O)C(O)CCC(O)CC(O)CC(O)CC(=O)O[C@H]1C)CC(O)C2C(=O)O (stereo partly drawn) [nystatin]
- solubility-improving effect [1]: a solubility-improving effect was obtained

SMILES: CC(C)Cc1ccc(C(C)C(=O)O)cc1 (stereo not drawn) [ibuprofen]
- solubility-improving effect [1]: a solubility-improving effect was obtained

SMILES: C=CC[C@@H]1/C=C(\C)C[C@H](C)C[C@H](OC)[C@H]2O[C@@](O)(C(=O)C(=O)N3CCCC[C@H]3C(=O)O[C@H](/C(C)=C/[C@@H]3CC[C@@H](O)[C@H](OC)C3)[C@H](C)[C@@H](O)CC1=O)[C@H](C)C[C@@H]2OC [tacrolimus hydrate]
- solubility-improving effect [1]: a solubility-improving effect was obtained

SMILES: N[C@@H](CSCC(=O)O)C(=O)O [L-carbocysteine]
- solubility-improving effect [1]: a solubility-improving effect was obtained

SMILES: Clc1ccc2c(c1)C(N1CCNCC1)=Nc1ccccc1O2 [amoxapine]
- solubility-improving effect [1]: a solubility-improving effect was obtained

SMILES: C[C@H]1[C@H](NC(=O)/C(=N\OC(C)(C)C(=O)O)c2csc(N)n2)C(=O)N1S(=O)(=O)O [aztreonam]
- solubility-improving effect [1]: a solubility-improving effect was obtained

SMILES: CC/C=C\C/C=C\C/C=C\C/C=C\C/C=C\CCCC(=O)OCC [ethyl icosapentate]
- solubility-improving effect [1]: a solubility-improving effect was obtained

SMILES: CC(C)(O/N=C(\C(=O)N[C@@H]1C(=O)N2C(C(=O)[O-])=C(C[n+]3ccccc3)CS[C@H]12)c1csc(N)n1)C(=O)O [ceftazidime]
- solubility-improving effect [1]: a solubility-improving effect was obtained

SMILES: CN(C)/N=N/c1[nH]cnc1C(N)=O [dacarbazine]
- solubility-improving effect [1]: a solubility-improving effect was obtained

SMILES: CC1CNc2c(cccc2S(=O)(=O)N[C@@H](CCCNC(=N)N)C(=O)N2CC[C@@H](C)C[C@@H]2C(=O)O)C1 (stereo partly drawn) [argatroban]
- solubility-improving effect [1]: a solubility-improving effect was obtained

SMILES: CCCCC(=O)O[C@H]1CC[C@H]2[C@@H]3CCc4cc(O)ccc4[C@H]3CC[C@]12C [estradiol valerate]
- solubility-improving effect [1]: a solubility-improving effect was obtained

SMILES: CCCCCC(=O)O[C@]1(C(C)=O)CC[C@H]2[C@@H]3CCC4=CC(=O)CC[C@]4(C)[C@H]3CC[C@@]21C [hydroxyprogesterone caproate]
- solubility-improving effect [1]: a solubility-improving effect was obtained

SMILES: CC(=O)O[C@H]1C(=O)[C@@]2(C)[C@H]([C@H](OC(=O)c3ccccc3)[C@]3(O)C[C@H](OC(=O)[C@H](O)[C@@H](NC(=O)c4ccccc4)c4ccccc4)C(C)=C1C3(C)C)[C@]1(OC(C)=O)CO[C@@H]1C[C@@H]2O [paclitaxel]
- solubility-improving effect [1]: a solubility-improving effect was obtained

SMILES: CN1CCC[C@@H]1CCO[C@](C)(c1ccccc1)c1ccc(Cl)cc1 [clemastine fumarate]
- solubility-improving effect [1]: a solubility-improving effect was obtained

SMILES: O=C(O)c1cc(/N=N/c2ccc(S(=O)(=O)Nc3ccccn3)cc2)ccc1O [salazosulfapyridine]
- solubility-improving effect [1]: a solubility-improving effect was obtained

SMILES: C[C@]12CC[C@@H]3c4ccc(OC(=O)c5ccccc5)cc4CC[C@H]3[C@@H]1CC[C@@H]2O [estradiol benzoate]
- solubility-improving effect [1]: a solubility-improving effect was obtained

SMILES: CC(=O)Nc1nnc(S(N)(=O)=O)s1 [compound 23, Acetazolamide]
- Dissolved amount ([2]; water, elution time 3 min): 1040.6 µg/mL
- Dissolved amount ([2]; water, elution time 10 min): 1238.7 µg/mL
- Dissolved amount ([2]; water, elution time 30 min): 1244.8 µg/mL
- Dissolved amount ([2]; water, elution time 120 min): 1251.4 µg/mL
- Dissolved amount ([2]; water, elution time 360 min): 1212.0 µg/mL
- Dissolved amount [3, 4]: 1331.6 µg/mL
- Dissolved amount [3, 5]: 1721.6 µg/mL
- Dissolved amount [3, 6]: 1654.9 µg/mL

SMILES: CC(=O)SC[C@@H](C)C(=O)N1CCC[C@H]1C(=O)N[C@@H](Cc1ccccc1)C(=O)O [compound 24, Alacepril]
- Dissolved amount ([2]; water, elution time 3 min): 526.2 µg/mL
- Dissolved amount ([2]; water, elution time 10 min): 805.6 µg/mL
- Dissolved amount ([2]; water, elution time 30 min): 931.2 µg/mL
- Dissolved amount ([2]; water, elution time 120 min): 994.9 µg/mL
- Dissolved amount ([2]; water, elution time 360 min): 996.5 µg/mL
- Dissolved amount [3, 4]: 2311.1 µg/mL
- Dissolved amount [3, 7]: 2525.0 µg/mL

SMILES: C[C@]12CC[C@@H]3c4ccc(O)cc4CC[C@H]3[C@@H]1C[C@@H](O)[C@@H]2O [estriol]
- solubility-improving effect [1]: a solubility-improving effect was obtained

SMILES: CC(=O)O[C@]1(C(C)=O)CC[C@H]2[C@@H]3C=C(Cl)C4=CC(=O)CC[C@]4(C)[C@H]3CC[C@@]21C [Comparative Example 3-2, Chlormadinone acetate]
- Dissolved amount ([2]; after dissolution test for 360 minutes, distilled water, 37±0.5° C.): 1.2 µg/mL
- Dissolved amount ([2]; water, elution time 1 min): 0.6 µg/mL
- Dissolved amount ([2]; water, elution time 3 min): 0.6 µg/mL
- Dissolved amount ([2]; water, elution time 10 min): 0.7 µg/mL
- Dissolved amount ([2]; water, elution time 30 min): 0.9 µg/mL
- Dissolved amount ([2]; water, elution time 60 min): 1.0 µg/mL
- Dissolved amount ([2]; water, elution time 180 min): 1.1 µg/mL
- Dissolved amount ([2]; water, elution time 360 min): 1.2 µg/mL
- Dissolved amount ([3]; 2nd fluid for disintegration test, elution time 1 min): 1.4 µg/mL
- Dissolved amount [3, 4]: 1.4 µg/mL
- Dissolved amount [3, 8]: 1.8 µg/mL
- Dissolved amount [3, 7]: 1.0 µg/mL
- Dissolved amount ([3]; 2nd fluid for disintegration test, elution time 60 min): 1.0 µg/mL
- Dissolved amount ([3]; 2nd fluid for disintegration test, elution time 180 min): 2.3 µg/mL
- Dissolved amount [3, 6]: 2.8 µg/mL
- Dissolved amount ([3]; after dissolution test for 360 minutes, Second disintegration test medium (pH 6.8), 37±0.5° C.): 2.8 µg/mL

SMILES: CCn1cc(C(=O)O)c(=O)c2cc(F)c(N3CCNCC3)cc21 [compound 27, Norfloxacin]
- Dissolved amount ([2]; water, elution time 3 min): 455.9 µg/mL
- Dissolved amount ([2]; water, elution time 10 min): 523.1 µg/mL
- Dissolved amount ([2]; water, elution time 30 min): 492.3 µg/mL
- Dissolved amount ([2]; water, elution time 120 min): 470.7 µg/mL
- Dissolved amount ([2]; water, elution time 360 min): 395.5 µg/mL
- Dissolved amount [3, 4]: 688.7 µg/mL
- Dissolved amount [3, 8]: 767.1 µg/mL
- Dissolved amount [3, 7]: 744.1 µg/mL
- Dissolved amount [3, 5]: 721.6 µg/mL
- Dissolved amount [3, 6]: 694.7 µg/mL

SMILES: C[C@]12C=CC(=O)C=C1CC[C@@H]1[C@@H]2[C@@H](O)C[C@@]2(C)[C@H]1CC[C@]2(O)C(=O)CO [compound 41, Prednisolone]
- Dissolved amount ([2]; Prednisolone, water, elution time 10 min): 336.3 µg/mL
- Dissolved amount ([2]; Prednisolone, water, elution time 30 min): 315.8 µg/mL
- Dissolved amount ([2]; Prednisolone, water, elution time 120 min): 268.2 µg/mL
- Dissolved amount ([2]; Prednisolone, water, elution time 360 min): 266.3 µg/mL
- Dissolved amount ([3]; Prednisolone, 2nd fluid for disintegration test, elution time 3 min): 369.1 µg/mL
- Dissolved amount ([3]; Prednisolone, 2nd fluid for disintegration test, elution time 10 min): 382.4 µg/mL
- Dissolved amount ([3]; Prednisolone, 2nd fluid for disintegration test, elution time 30 min): 310.8 µg/mL
- Dissolved amount ([3]; Prednisolone, 2nd fluid for disintegration test, elution time 120 min): 265.5 µg/mL
- Dissolved amount ([3]; Prednisolone, 2nd fluid for disintegration test, elution time 360 min): 257.9 µg/mL

SMILES: O=[N+]([O-])O[C@H]1CO[C@H]2[C@@H]1OC[C@H]2O[N+](=O)[O-] [compound 30, Isosorbide Dinitrate]
- Dissolved amount ([2]; water, elution time 30 min): 3490.4 µg/mL
- Dissolved amount ([2]; water, elution time 120 min): 3516.8 µg/mL
- Dissolved amount [3, 8]: 7154.4 µg/mL
- Dissolved amount [3, 7]: 7134.1 µg/mL
- Dissolved amount [3, 6]: 7148.8 µg/mL

SMILES: CCCN(CCC)S(=O)(=O)c1ccc(C(=O)O)cc1 [compound 38, Probenecid]
- Dissolved amount ([2]; Probenecid, water, elution time 3 min): 10.7 µg/mL
- Dissolved amount ([2]; Probenecid, water, elution time 10 min): 22.7 µg/mL
- Dissolved amount ([2]; Probenecid, water, elution time 30 min): 33.4 µg/mL
- Dissolved amount ([2]; Probenecid, water, elution time 120 min): 39.8 µg/mL
- Dissolved amount ([2]; Probenecid, water, elution time 360 min): 37.5 µg/mL
- Dissolved amount ([3]; Probenecid, 2nd fluid for disintegration test, elution time 3 min): 386.2 µg/mL
- Dissolved amount ([3]; Probenecid, 2nd fluid for disintegration test, elution time 10 min): 1107.2 µg/mL
- Dissolved amount ([3]; Probenecid, 2nd fluid for disintegration test, elution time 30 min): 1315.0 µg/mL
- Dissolved amount ([3]; Probenecid, 2nd fluid for disintegration test, elution time 120 min): 2619.5 µg/mL
- Dissolved amount ([3]; Probenecid, 2nd fluid for disintegration test, elution time 360 min): 3715.9 µg/mL

SMILES: CC(=O)S[C@@H]1CC2=CC(=O)CC[C@]2(C)[C@H]2CC[C@@]3(C)[C@@H](CC[C@@]34CCC(=O)O4)[C@H]12 [compound 34, Spironolactone]
- Dissolved amount ([2]; Spironolactone, water, elution time 3 min): 29.6 µg/mL
- Dissolved amount ([2]; Spironolactone, water, elution time 10 min): 31.9 µg/mL
- Dissolved amount ([2]; Spironolactone, water, elution time 30 min): 33.7 µg/mL
- Dissolved amount ([2]; Spironolactone, water, elution time 120 min): 39.7 µg/mL
- Dissolved amount ([2]; Spironolactone, water, elution time 360 min): 35.2 µg/mL
- Dissolved amount ([3]; Spironolactone, 2nd fluid for disintegration test, elution time 3 min): 71.0 µg/mL
- Dissolved amount ([3]; Spironolactone, 2nd fluid for disintegration test, elution time 10 min): 85.6 µg/mL
- Dissolved amount ([3]; Spironolactone, 2nd fluid for disintegration test, elution time 30 min): 89.3 µg/mL
- Dissolved amount ([3]; Spironolactone, 2nd fluid for disintegration test, elution time 120 min): 92.0 µg/mL
- Dissolved amount ([3]; Spironolactone, 2nd fluid for disintegration test, elution time 360 min): 93.7 µg/mL
